Legend:
Hepatitis C virus [1] = test: microbe, parasite or virus in culture; format: functional, organism-based, Hepacivirus hominis, genotype 1b, Huh-luc/neo-ET; details: Hepatitis C virus, genotype 1b, Huh-luc/neo-ET, 72 h
Description: Antiviral activity against HCV-1b infected human Huh-luc/neo-ET replicon cells after 72 hrs by luciferase based replicon assay

in vitro [2] = details: human, t1/2
in vitro [3] = details: human
Description: Metabolic stability in human liver microsomes assessed as compound remaining after 60 mins at 1 uM

Hepatitis C virus [4] = test: microbe, parasite or virus in culture; format: functional, organism-based, Hepacivirus hominis, subtype 1a, Huh-lunet; details: Hepatitis C virus, subtype 1a, Huh-lunet, 96 h
Description: Antiviral activity against HCV-1a infected in human Huh-lunet cells after 4 days by luciferase based replicon assay

Row | SMILES | EC50 (Hepatitis C virus [1]) [nM] | half-life at 1 µM (in vitro [2]; liver microsomes) [min] | also measured
1 | Cc1ccc(CN2C(=O)C(C3=NS(=O)(=O)c4cc(NS(C)(=O)=O)ccc4N3)=C(O)[C@@H]3C4CCC(CC4)[C@@H]32)cc1F | 240 | – | –
2 | CS(=O)(=O)Nc1ccc2c(c1)S(=O)(=O)N=C(C1=C(O)[C@@H]3C4CCC(CC4)[C@@H]3N(Cc3cc(F)ccc3F)C1=O)N2 | 220 | – | –
3 | CS(=O)(=O)Nc1ccc2c(c1)S(=O)(=O)N=C(C1=C(O)[C@@H]3C4CCC(CC4)[C@@H]3N(Cc3cccc(F)c3F)C1=O)N2 | 82 | > 60 | remaining at 1 h, 1 µM (in vitro [3]; liver microsomes): 75%
4 | CS(=O)(=O)Nc1ccc2c(c1)S(=O)(=O)N=C(C1=C(O)[C@@H]3C4CCC(CC4)[C@@H]3N(Cc3cccc(C(F)(F)F)c3)C1=O)N2 | 390 | – | –
5 | CS(=O)(=O)Nc1ccc2c(c1)S(=O)(=O)N=C(C1=C(O)[C@@H]3C4CCC(CC4)[C@@H]3N(Cc3cc(Cl)ccc3F)C1=O)N2 | 80 | > 60 | remaining at 1 h, 1 µM (in vitro [3]; liver microsomes): 100%
6 | CS(=O)(=O)Nc1ccc2c(c1)S(=O)(=O)N=C(C1=C(O)[C@@H]3C4CCC(CC4)[C@@H]3N(Cc3ccccc3F)C1=O)N2 | 26 | > 60 | remaining at 1 h, 1 µM (in vitro [3]; liver microsomes): 81%
7 | CS(=O)(=O)Nc1ccc2c(c1)S(=O)(=O)N=C(C1=C(O)[C@@H]3C4CCC(CC4)[C@@H]3N(Cc3ccc(C(F)(F)F)cc3)C1=O)N2 | 1100 | – | –
8 | CS(=O)(=O)Nc1ccc2c(c1)S(=O)(=O)N=C(C1=C(O)[C@@H]3[C@@H]4CC[C@@H](C4)[C@@H]3N(CC3CCCCC3)C1=O)N2 | 63 | 15 | –
9 | CS(=O)(=O)Nc1ccc2c(c1)S(=O)(=O)N=C(C1=C(O)[C@@H]3[C@@H]4CC[C@@H](C4)[C@@H]3N(Cc3ccc(F)c(F)c3F)C1=O)N2 | 46 | > 60 | remaining at 1 h, 1 µM (in vitro [3]; liver microsomes): 87%
10 | COc1cc(CN2C(=O)C(C3=NS(=O)(=O)c4cc(NS(C)(=O)=O)ccc4N3)=C(O)[C@@H]3[C@@H]4CC[C@@H](C4)[C@@H]32)ccc1F | 59 | – | half-life at 1 µM (in vitro [2]; microsomes): > 60 min; remaining at 1 h, 1 µM (in vitro [3]; microsomes): 64%
11 | Cc1ccc(CN2C(=O)C(C3=NS(=O)(=O)c4cc(NS(C)(=O)=O)ccc4N3)=C(O)[C@@H]3[C@@H]4CC[C@@H](C4)[C@@H]32)cc1F | 1700 | – | –
12 | CS(=O)(=O)Nc1ccc2c(c1)S(=O)(=O)N=C(C1=C(O)[C@@H]3[C@@H]4CC[C@@H](C4)[C@@H]3N(Cc3cccc(F)c3F)C1=O)N2 | 100 | – | –
13 | CS(=O)(=O)Nc1ccc2c(c1)S(=O)(=O)N=C(C1=C(O)[C@@H]3[C@@H]4CC[C@@H](C4)[C@@H]3N(Cc3ccc(F)cc3Cl)C1=O)N2 | 140 | – | –
14 | CS(=O)(=O)Nc1ccc2c(c1)S(=O)(=O)N=C(C1=C(O)[C@@H]3[C@@H]4CC[C@@H](C4)[C@@H]3N(Cc3ccc(Cl)cc3)C1=O)N2 | 73 | – | half-life at 1 µM (in vitro [2]; microsomes): > 60 min; remaining at 1 h, 1 µM (in vitro [3]; microsomes): 100%
15 | CS(=O)(=O)Nc1ccc2c(c1)S(=O)(=O)N=C(C1=C(O)[C@@H]3[C@@H]4CC[C@@H](C4)[C@@H]3N(Cc3ccc(F)cc3F)C1=O)N2 | 55 | – | half-life at 1 µM (in vitro [2]; microsomes): > 60 min; remaining at 1 h, 1 µM (in vitro [3]; microsomes): 100%
16 | CS(=O)(=O)Nc1ccc2c(c1)S(=O)(=O)N=C(C1=C(O)[C@@H]3[C@@H]4CC[C@@H](C4)[C@@H]3N(Cc3cc(Cl)ccc3F)C1=O)N2 | 300 | – | –
17 | CS(=O)(=O)Nc1ccc2c(c1)S(=O)(=O)N=C(C1=C(O)[C@@H]3[C@@H]4CC[C@@H](C4)[C@@H]3N(Cc3cc(F)ccc3F)C1=O)N2 | 260 | – | –
18 | CS(=O)(=O)Nc1ccc2c(c1)S(=O)(=O)N=C(C1=C(O)[C@@H]3[C@@H]4CC[C@@H](C4)[C@@H]3N(Cc3cccc(C(F)(F)F)c3)C1=O)N2 | 940 | – | –
19 | COc1cccc(CN2C(=O)C(C3=NS(=O)(=O)c4cc(NS(C)(=O)=O)ccc4N3)=C(O)[C@@H]3[C@@H]4CC[C@@H](C4)[C@@H]32)c1 | 62 | > 60 | remaining at 1 h, 1 µM (in vitro [3]; liver microsomes): 83%
20 | CS(=O)(=O)Nc1ccc2c(c1)S(=O)(=O)N=C(C1=C(O)[C@@H]3[C@@H]4CC[C@@H](C4)[C@@H]3N(Cc3ccc(C(F)(F)F)cc3)C1=O)N2 | > 3300 | – | –
21 | CS(=O)(=O)Nc1ccc2c(c1)S(=O)(=O)N=C(C1=C(O)[C@@H]3[C@@H]4CC[C@@H](C4)[C@@H]3N(Cc3ccccc3F)C1=O)N2 | 63 | > 60 | remaining at 1 h, 1 µM (in vitro [3]; liver microsomes): 83%
22 | CS(=O)(=O)Nc1ccc2c(c1)S(=O)(=O)N=C(C1=C(O)[C@@H]3[C@@H]4CC[C@@H](C4)[C@@H]3N(Cc3ccccc3Cl)C1=O)N2 | 130 | – | –
23 | CS(=O)(=O)Nc1ccc2c(c1)S(=O)(=O)N=C(C1=C(O)[C@@H]3[C@H]4CC[C@H](C4)[C@@H]3N(CC3CCCCC3)C1=O)N2 | 22 | 44 | –
24 | Cc1ccc(CN2C(=O)C(C3=NS(=O)(=O)c4cc(NS(C)(=O)=O)ccc4N3)=C(O)[C@@H]3[C@H]4CC[C@H](C4)[C@@H]32)cc1F | 770 | > 60 | remaining at 1 h, 1 µM (in vitro [3]; liver microsomes): 78%

Row | SMILES | EC50 (Hepatitis C virus [1]) [nM] | half-life at 1 µM (in vitro [2]; liver microsomes) [min] | also measured
25 | CS(=O)(=O)Nc1ccc2c(c1)S(=O)(=O)N=C(C1=C(O)[C@@H]3[C@H]4CC[C@H](C4)[C@@H]3N(Cc3cccc(F)c3F)C1=O)N2 | 130 | – | –
26 | COc1cccc(CN2C(=O)C(C3=NS(=O)(=O)c4cc(NS(C)(=O)=O)ccc4N3)=C(O)[C@@H]3[C@H]4CC[C@H](C4)[C@@H]32)c1 | 70 | > 60 | remaining at 1 h, 1 µM (in vitro [3]; liver microsomes): 61%
27 | CS(=O)(=O)Nc1ccc2c(c1)S(=O)(=O)N=C(C1=C(O)[C@@H]3[C@H]4CC[C@H](C4)[C@@H]3N(Cc3cc(Cl)ccc3F)C1=O)N2 | 250 | – | –
28 | CS(=O)(=O)Nc1ccc2c(c1)S(=O)(=O)N=C(C1=C(O)[C@@H]3[C@H]4CC[C@H](C4)[C@@H]3N(Cc3cc(F)ccc3F)C1=O)N2 | 260 | – | –
29 | CS(=O)(=O)Nc1ccc2c(c1)S(=O)(=O)N=C(C1=C(O)[C@@H]3[C@H]4CC[C@H](C4)[C@@H]3N(Cc3ccccc3Cl)C1=O)N2 | 90 | > 60 | remaining at 1 h, 1 µM (in vitro [3]; liver microsomes): 100%
30 | CS(=O)(=O)Nc1ccc2c(c1)S(=O)(=O)N=C(C1=C(O)[C@@H]3[C@H]4CC[C@H](C4)[C@@H]3N(Cc3cccc(C(F)(F)F)c3)C1=O)N2 | 820 | – | –
31 | CS(=O)(=O)Nc1ccc2c(c1)S(=O)(=O)N=C(C1=C(O)[C@@H]3[C@H]4CC[C@H](C4)[C@@H]3N(Cc3ccc(C(F)(F)F)cc3)C1=O)N2 | > 3300 | – | –
32 | CS(=O)(=O)Nc1ccc2c(c1)S(=O)(=O)N=C(C1=C(O)[C@@H]3[C@H]4CC[C@H](C4)[C@@H]3N(Cc3ccccc3F)C1=O)N2 | 70 | > 60 | remaining at 1 h, 1 µM (in vitro [3]; liver microsomes): 89%
33 | CS(=O)(=O)Nc1ccc2c(c1)S(=O)(=O)N=C(C1=C(O)[C@@H]3[C@H]4CC[C@H](C4)[C@@H]3N(Cc3ccccc3)C1=O)N2 | 29 | > 60 | remaining at 1 h, 1 µM (in vitro [3]; liver microsomes): 80%
34 | CS(=O)(=O)Nc1ccc2c(c1)S(=O)(=O)N=C(C1=C(O)[C@@H]3[C@H]4CC[C@H](C4)[C@@H]3N(Cc3ccco3)C1=O)N2 | 250 | – | –
35 | CC(C)CCN1C(=O)C(C2=NS(=O)(=O)c3cc(NS(C)(=O)=O)ccc3N2)=C(O)[C@@H]2C3CCC(CC3)[C@@H]21 | 29 | 59 | –
36 | CS(=O)(=O)Nc1ccc2c(c1)S(=O)(=O)N=C(C1=C(O)[C@@H]3C4CCC(CC4)[C@@H]3N(Cc3ccco3)C1=O)N2 | 80 | > 60 | remaining at 1 h, 1 µM (in vitro [3]; liver microsomes): 96%
37 | CC(C)CCN1C(=O)C(C2=NS(=O)(=O)c3cc(NS(C)(=O)=O)ccc3N2)=C(O)[C@@H]2[C@@H]3CC[C@@H](C3)[C@@H]21 | 89 | 18 | –
38 | CS(=O)(=O)Nc1ccc2c(c1)S(=O)(=O)N=C(C1=C(O)[C@@H]3C4CCC(CC4)[C@@H]3N(Cc3nccs3)C1=O)N2 | 3300 | – | –
39 | CS(=O)(=O)Nc1ccc2c(c1)S(=O)(=O)N=C(C1=C(O)[C@@H]3[C@H]4CC[C@H](C4)[C@@H]3N(Cc3nccs3)C1=O)N2 | > 1000 | – | –
40 | CC(C)CCN1C(=O)C(C2=NS(=O)(=O)c3cc(NS(C)(=O)=O)ccc3N2)=C(O)[C@@H]2[C@H]3CC[C@H](C3)[C@@H]21 | 12 | 37 | EC50 (Hepatitis C virus [4]): 72 nM
41 | CS(=O)(=O)Nc1ccc2c(c1)S(=O)(=O)N=C(C1=C(O)[C@@H]3[C@@H]4CC[C@@H](C4)[C@@H]3N(Cc3nccs3)C1=O)N2 | > 1000 | – | –
42 | CS(=O)(=O)Nc1ccc2c(c1)S(=O)(=O)N=C(C1=C(O)[C@@H]3[C@H]4CC[C@H](C4)[C@@H]3N(CC3CCCC3)C1=O)N2 | 72 | – | half-life at 1 µM (in vitro [2]; microsomes): 46 min
43 | CS(=O)(=O)Nc1ccc2c(c1)S(=O)(=O)N=C(C1=C(O)[C@@H]3[C@@H]4CC[C@@H](C4)[C@@H]3N(CC3CCCC3)C1=O)N2 | 160 | – | half-life at 1 µM (in vitro [2]; microsomes): 17 min
44 | CS(=O)(=O)Nc1ccc2c(c1)S(=O)(=O)N=C(C1=C(O)[C@@H]3C4CCC(CC4)[C@@H]3N(CC3CCCC3)C1=O)N2 | 24 | 47 | –
45 | CC(C)(C)CCN1C(=O)C(C2=NS(=O)(=O)c3cc(NS(C)(=O)=O)ccc3N2)=C(O)[C@@H]2[C@H]3CC[C@H](C3)[C@@H]21 | 20 | – | half-life at 1 µM (in vitro [2]; microsomes): 4 min; EC50 (Hepatitis C virus [4]): 180 nM
46 | CC(C)(C)CCN1C(=O)C(C2=NS(=O)(=O)c3cc(NS(C)(=O)=O)ccc3N2)=C(O)[C@@H]2[C@@H]3CC[C@@H](C3)[C@@H]21 | 50 | – | half-life at 1 µM (in vitro [2]; microsomes): 3 min
47 | CS(=O)(=O)Nc1ccc2c(c1)S(=O)(=O)N=C(C1=C(O)[C@@H]3[C@@H]4CC[C@@H](C4)[C@@H]3N(Cc3ccco3)C1=O)N2 | 170 | – | –

— ChEMBL document CHEMBL1154345, “Discovery of tricyclic 5,6-dihydro-1H-pyridin-2-ones as novel, potent, and orally bioavailable inhibitors of HCV NS5B polymerase” (Bioorg Med Chem Lett, 2009)
